Legend:
Rattus norvegicus [1] = test: In vivo plasma distribution of total doxorubicin after 6 hr intravenous administration of 2.5 mg/kg of compound in rat bearing Walker 256 cells; type: ADME, organism-based; parameters: dose 2.5 mg/kg, route intravenous
Rattus norvegicus [2] = test: In vivo spleen distribution of total doxorubicin after 6 hr intravenous administration of 2.5 mg/kg of compound in rat bearing Walker 256 cells; type: ADME, organism-based; parameters: dose 2.5 mg/kg, route intravenous
Rattus norvegicus [3] = test: In vivo tumor distribution of free doxorubicin after 6 h intravenous administration of 2.5 mg/kg of compound in rat bearing Walker 256 cells; type: ADME, organism-based; parameters: dose 2.5 mg/kg, route intravenous
Rattus norvegicus [4] = test: In vivo liver distribution of free doxorubicin after 6 hr intravenous administration of 2.5 mg/kg of compound in rat bearing Walker 256 cells; type: ADME, organism-based; parameters: dose 2.5 mg/kg, route intravenous
Rattus norvegicus [5] = species on record: Rattus norvegicus; test: Effective dose was measured in rats; type: functional
Rattus norvegicus [6] = test: In vivo plasma distribution of free doxorubicin after 6 h intravenous administration of 2.5 mg/kg of compound in rat bearing Walker 256 cells; type: ADME, organism-based; parameters: dose 2.5 mg/kg, route intravenous
Rattus norvegicus [7] = test: In vivo heart distribution of free doxorubicin after 6 hr intravenous administration of 2.5 mg/kg of compound in rat bearing Walker 256 cells; type: ADME, organism-based; parameters: dose 2.5 mg/kg, route intravenous
Rattus norvegicus [8] = test: In vivo liver distribution of total doxorubicin after 6 h intravenous administration of 2.5 mg/kg of compound in rat bearing Walker 256 cells; type: ADME, organism-based; parameters: dose 2.5 mg/kg, route intravenous
Rattus norvegicus [9] = test: In vivo tumor distribution of total doxorubicin after 6 hr intravenous administration of 2.5 mg/kg of compound in rat bearing Walker 256 cells; type: ADME, organism-based; parameters: dose 2.5 mg/kg, route intravenous

Work on COc1cccc2c1C(=O)c1c(O)c3c(c(O)c1C2=O)C[C@@](O)(C(=O)CO)C[C@@H]3O[C@H]1C[C@H](N)[C@H](O)[C@H](C)O1 [DOXORUBICIN] yielded a Dose/g tissue (Rattus norvegicus [1]) of 0%, a Dose/g tissue (Rattus norvegicus [2]) of 2.21% and a Dose/g tissue (Rattus norvegicus [3]) of 0.24%. It also gave a Dose/g tissue (Rattus norvegicus [4]) of 0.56%, an ED50 (Rattus norvegicus [5]) of 1.17 mg/kg and a Dose/g tissue (Rattus norvegicus [6]) of 0%. The Dose/g tissue (Rattus norvegicus [7]) was 1.13%, the Dose/g tissue (Rattus norvegicus [8]) was 0.54% and the Dose/g tissue (Rattus norvegicus [9]) was 0.35%.

Reference: ChEMBL document CHEMBL1133073, “Structure-activity relationships of carboxymethylpullulan-peptide-doxorubicin conjugates--systematic modification of peptide spacers” (Bioorg Med Chem Lett, 2000)
